{"source": "paper PMC6979384", "about": "“Characterization of the plant homeodomain (PHD) reader family for their histone tail interactions” (Epigenetics & Chromatin, 2020)", "experiment_in_all_cases": "Histone peptide microarray", "assay_type_in_all_cases": "binding, human", "key": {"[1]": {"system": "PHF21A", "details": "GST-tagged PHF21A, sheet Array Heatmap, each array performed twice, total n = 4", "summary_of_the_method": "(§1)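 Recombinant GST-PHD protein at 0.5 μM; 293-member modified histone peptide array; signals averaged from four repeats ± SD.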"}, "[2]": {"system": "CHD5 (PCC)", "details": "GST-tagged CHD5 (PCC = PHD + Dual Chromodomain), sheet Array Heatmap, each array performed twice, total n = 4", "summary_of_the_method": "as §1"}, "[3]": {"system": "KDM7A", "details": "GST-tagged KDM7A, sheet Array Heatmap, each array performed twice, total n = 4", "summary_of_the_method": "as §1"}, "[4]": {"system": "AIRE (PP)", "details": "GST-tagged AIRE (PP), sheet Array Heatmap, each array performed twice, total n = 4", "summary_of_the_method": "as §1"}, "[5]": {"system": "PHF8", "details": "GST-tagged PHF8, sheet Array Heatmap, each array performed twice, total n = 4", "summary_of_the_method": "as §1"}, "[6]": {"system": "MORC3 (CW)", "details": "GST-tagged MORC3 (CW = CW-type Zn-finger), sheet Array Heatmap, each array performed twice, total n = 4", "summary_of_the_method": "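GST-tagged PHD finger readers were expressed, purified and applied at 0.5 μM to a microarray of 293 synthetic histone peptides carrying single or combinatorial PTMs, using an optimized protocol. Binding signals are averages with standard deviation from 4 replicates.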"}, "[7]": {"system": "PHF23", "details": "GST-tagged PHF23, sheet Array Heatmap, each array performed twice, total n = 4", "summary_of_the_method": "as §1"}, "[8]": {"system": "ING3", "details": "GST-tagged ING3, sheet Array Heatmap, each array performed twice, total n = 4", "summary_of_the_method": "as §1"}, "[9]": {"system": "KDM5A (1)", "details": "GST-tagged KDM5A (1), sheet Array Heatmap, each array performed twice, total n = 4", "summary_of_the_method": "as §1"}, "[10]": {"system": "BAZ2B", "details": "GST-tagged BAZ2B, sheet Array Heatmap, each array performed twice, total n = 4", "summary_of_the_method": "as §1"}, "[11]": {"system": "PHRF1 (RP)", "details": "GST-tagged PHRF1 (RP), sheet Array Heatmap, each array performed twice, total n = 4", "summary_of_the_method": "as §1"}, "[12]": {"system": "ING1", "details": "GST-tagged ING1, sheet Array Heatmap, each array performed twice, total n = 4", "summary_of_the_method": "as §1"}, "[13]": {"system": "CHD5 (PPCC)", "details": "GST-tagged CHD5 (PPCC = Dual PHD + Dual Chromodomain), sheet Array Heatmap, each array performed twice, total n = 4", "summary_of_the_method": "as §1"}, "[14]": {"system": "ING2", "details": "GST-tagged ING2, sheet Array Heatmap, each array performed twice, total n = 4", "summary_of_the_method": "as §1"}, "[15]": {"system": "KDM5B (3)", "details": "GST-tagged KDM5B (3), sheet Array Heatmap, each array performed twice, total n = 4", "summary_of_the_method": "as §1"}, "[16]": {"system": "DPF2 (PPC2W2)", "details": "GST-tagged DPF2 (PPC2W2 = Dual PHD + C2W2-type Zn-finger), sheet Array Heatmap, each array performed twice, total n = 4", "summary_of_the_method": "as §1"}, "[17]": {"system": "CHD4 (PPCC)", "details": "for Array Heatmap signal (histone peptide microarray): GST-tagged CHD4 (PPCC = Dual PHD + Dual Chromodomain), sheet Array Heatmap, each array performed twice, total n = 4", "summary_of_the_method": "as §1"}, "[18]": {"system": "KDM5A (3)", "details": "GST-tagged KDM5A (3), sheet Array Heatmap, each array performed twice, total n = 4", "summary_of_the_method": "as §1"}, "[19]": {"system": "BPTF (PB)", "details": "GST-tagged BPTF (PB = PHD + Bromodomain), sheet Array Heatmap, each array performed twice, total n = 4", "summary_of_the_method": "as §1"}, "[20]": {"system": "ING4", "details": "GST-tagged ING4, sheet Array Heatmap, each array performed twice, total n = 4", "summary_of_the_method": "as §1"}, "[21]": {"system": "ING5", "details": "GST-tagged ING5, sheet Array Heatmap, each array performed twice, total n = 4", "summary_of_the_method": "as §1"}, "[22]": {"system": "TAF3", "details": "GST-tagged TAF3, sheet Array Heatmap, each array performed twice, total n = 4", "summary_of_the_method": "as §1"}, "[23]": {"system": "KDM5B (1)", "details": "GST-tagged KDM5B (1), sheet Array Heatmap, each array performed twice, total n = 4", "summary_of_the_method": "as §1"}, "[24]": {"system": "TRIM66 (PB)", "details": "GST-tagged TRIM66 (PB = PHD + Bromodomain), sheet Array Heatmap, each array performed twice, total n = 4", "summary_of_the_method": "as §1"}, "[25]": {"system": "PHF13", "details": "GST-tagged PHF13, sheet Array Heatmap, each array performed twice, total n = 4", "summary_of_the_method": "as §1"}, "[26]": {"system": "KDM4C (TTP)", "details": "GST-tagged KDM4C (TTP = Tandem Tudor domain + PHD), sheet Array Heatmap, each array performed twice, total n = 4", "summary_of_the_method": "as §1"}}}
{"substance": "H3K9ac: H3 1-20 [Peptide H3K9ac]", "values": [{"measurement": "Array Heatmap signal (histone peptide microarray)", "setting": "[1]; listed as 2", "value": 0.4621}, {"measurement": "Array Heatmap signal (histone peptide microarray)", "setting": "[1]; listed as 3", "value": 0.47}, {"measurement": "Array Heatmap signal (histone peptide microarray)", "setting": "[2]; listed as 2", "value": 0.8342}, {"measurement": "Array Heatmap signal (histone peptide microarray)", "setting": "[2]; listed as 3", "value": 0.7526}, {"measurement": "Array Heatmap signal (histone peptide microarray)", "setting": "[3]; listed as 2", "value": 0.303}, {"measurement": "Array Heatmap signal (histone peptide microarray)", "setting": "[3]; listed as 3", "value": 0.3051}, {"measurement": "Array Heatmap signal (histone peptide microarray)", "setting": "[4]; listed as 2", "value": 0.4059}, {"measurement": "Array Heatmap signal (histone peptide microarray)", "setting": "[4]; listed as 3", "value": 0.3893}, {"measurement": "Array Heatmap signal (histone peptide microarray)", "setting": "[5]; listed as 2", "value": 0.3437}, {"measurement": "Array Heatmap signal (histone peptide microarray)", "setting": "[5]; listed as 3", "value": 0.3517}, {"measurement": "Array Heatmap signal (histone peptide microarray)", "setting": "[6]; listed as 2", "value": 0.5166}, {"measurement": "Array Heatmap signal (histone peptide microarray)", "setting": "[6]; listed as 3", "value": 0.5177}, {"measurement": "Array Heatmap signal (histone peptide microarray)", "setting": "[7]; listed as 2", "value": 0.5351}, {"measurement": "Array Heatmap signal (histone peptide microarray)", "setting": "[7]; listed as 3", "value": 0.5457}, {"measurement": "Array Heatmap signal (histone peptide microarray)", "setting": "[8]; listed as 2", "value": 0.4489}, {"measurement": "Array Heatmap signal (histone peptide microarray)", "setting": "[8]; listed as 3", "value": 0.4338}, {"measurement": "Array Heatmap signal (histone peptide microarray)", "setting": "[9]; listed as 2", "value": 0.4743}, {"measurement": "Array Heatmap signal (histone peptide microarray)", "setting": "[9]; listed as 3", "value": 0.4479}, {"measurement": "Array Heatmap signal (histone peptide microarray)", "setting": "[10]; listed as 2", "value": 0.4731}, {"measurement": "Array Heatmap signal (histone peptide microarray)", "setting": "[10]; listed as 3", "value": 0.4634}, {"measurement": "Array Heatmap signal (histone peptide microarray)", "setting": "[11]; listed as 2", "value": 0.9096}, {"measurement": "Array Heatmap signal (histone peptide microarray)", "setting": "[11]; listed as 3", "value": 0.8949}, {"measurement": "Array Heatmap signal (histone peptide microarray)", "setting": "[12]; listed as 2", "value": 0.5257}, {"measurement": "Array Heatmap signal (histone peptide microarray)", "setting": "[12]; listed as 3", "value": 0.5645}, {"measurement": "Array Heatmap signal (histone peptide microarray)", "setting": "[13]; listed as 2", "value": 0.5875}, {"measurement": "Array Heatmap signal (histone peptide microarray)", "setting": "[13]; listed as 3", "value": 0.5535}, {"measurement": "Array Heatmap signal (histone peptide microarray)", "setting": "[14]; listed as 2", "value": 0.6059}, {"measurement": "Array Heatmap signal (histone peptide microarray)", "setting": "[14]; listed as 3", "value": 0.6036}, {"measurement": "Array Heatmap signal (histone peptide microarray)", "setting": "[15]; listed as 2", "value": 0.5795}, {"measurement": "Array Heatmap signal (histone peptide microarray)", "setting": "[15]; listed as 3", "value": 0.5654}, {"measurement": "Array Heatmap signal (histone peptide microarray)", "setting": "[16]; listed as 2", "value": 0.7428}, {"measurement": "Array Heatmap signal (histone peptide microarray)", "setting": "[16]; listed as 3", "value": 0.7589}, {"measurement": "Array Heatmap signal (histone peptide microarray)", "setting": "[17]; listed as 2", "value": 0.6247}, {"measurement": "Array Heatmap signal (histone peptide microarray)", "setting": "[17]; listed as 3", "value": 0.6748}, {"measurement": "relative binding", "setting": "[17]; peptide microarray, reader 0.5 μM, n = 4", "value": "increased binding"}, {"measurement": "Array Heatmap signal (histone peptide microarray)", "setting": "[18]; listed as 2", "value": 0.6003}, {"measurement": "Array Heatmap signal (histone peptide microarray)", "setting": "[18]; listed as 3", "value": 0.6283}, {"measurement": "Array Heatmap signal (histone peptide microarray)", "setting": "[19]; listed as 2", "value": 0.3339}, {"measurement": "Array Heatmap signal (histone peptide microarray)", "setting": "[19]; listed as 3", "value": 0.3268}, {"measurement": "Array Heatmap signal (histone peptide microarray)", "setting": "[20]; listed as 2", "value": 0.4346}, {"measurement": "Array Heatmap signal (histone peptide microarray)", "setting": "[20]; listed as 3", "value": 0.4319}, {"measurement": "Array Heatmap signal (histone peptide microarray)", "setting": "[21]; listed as 2", "value": 0.3289}, {"measurement": "Array Heatmap signal (histone peptide microarray)", "setting": "[21]; listed as 3", "value": 0.3311}, {"measurement": "Array Heatmap signal (histone peptide microarray)", "setting": "[22]; listed as 2", "value": 0.3565}, {"measurement": "Array Heatmap signal (histone peptide microarray)", "setting": "[22]; listed as 3", "value": 0.3052}, {"measurement": "Array Heatmap signal (histone peptide microarray)", "setting": "[23]; listed as 2", "value": 0.6899}, {"measurement": "Array Heatmap signal (histone peptide microarray)", "setting": "[23]; listed as 3", "value": 0.6761}, {"measurement": "Array Heatmap signal (histone peptide microarray)", "setting": "[24]; listed as 2", "value": 0.8314}, {"measurement": "Array Heatmap signal (histone peptide microarray)", "setting": "[24]; listed as 3", "value": 0.731}, {"measurement": "Array Heatmap signal (histone peptide microarray)", "setting": "[25]; listed as 2", "value": 0.5811}, {"measurement": "Array Heatmap signal (histone peptide microarray)", "setting": "[25]; listed as 3", "value": 0.5738}, {"measurement": "Array Heatmap signal (histone peptide microarray)", "setting": "[26]; listed as 2", "value": 0.4318}, {"measurement": "Array Heatmap signal (histone peptide microarray)", "setting": "[26]; listed as 3", "value": 0.4332}]}
